In patent US20260232851A1, “METHODS FOR THE DETECTION AND DIAGNOSIS OF CANCERS ASSOCIATED WITH OVEREXPRESSION OF PSMA RECEPTOR” (CLARITY PHARMACEUTICALS LIMITED, priority 2023, published 2026):
“Also recorded” adds a separate entry of the source. Marks after values point to notes of the source that are not given here.

Experiments:
PSMA receptor [1] = target: T1, PSMA receptor (Homo sapiens, UniProt Q04609); assay: Same-day (Day 0) versus next-day (Day 1) PET imaging of patients; type: in vivo
T1 construct: localises at sites that overexpress the PSMA receptor and are indicative of a cancer; from tissue; host or cells: Primary prostate cancer and metastatic lesions (lymph node, bone, prostatic bed) in living patients

PSMA receptor [2] = target: T1, PSMA receptor; assay: Blinded central reader detection of primary prostate cancer and lesions on PET/CT; type: in vivo; settings: for % TPR (True Positive Rate), detection of primary prostate cancer: 200 MBq ^64Cu-Sar-bisPSMA; for % FNR (False Negative Rate): indeterminate results analysed as negative; for Detection of secondary lesion in lymph node by PET/CT (FIG. 3): same subject imaged with both tracers
Method: Patients with untreated, histopathology-proven, intermediate- to high-risk PC, planned for radical prostatectomy underwent ^68Ga-PSMA-11 PET/CT per institutional practice and were subsequently allocated to 1 out of 3 dose cohorts (1:1:3) to receive either 100 MBq, 150 MBq or 200 MBq of ^64Cu-SAR-bisPSMA, respectively. The specified dose of ^64Cu-Sar-bisPSMA was administered to each patient as a single bolus IV injection. […] PET/CT scans at other times after injection of the compound were acquired as required.
Patients were scanned using the standard clinical whole-body PET/CT acquisition protocol defined for each clinical site and in accordance with the Image Acquisition Manual, which contains details of scan acquisition, processing parameters and quality assurance procedures. The same scanner was used for each visit. Typical imaging acquisition parameters are below:
Two independent, blinded, central readers assessed the detection of primary PC on the 200 MBq ^64Cu-SAR-bisPSMA PET/CTs as the primary endpoint. To compare the intensity of lesions on ^68Ga-PSMA-11 and ^64Cu-SAR-bisPSMA PET, both readers determined the SUVs (SUVmax, SUVmean) and tumour-to-background ratio (ratio of lesion SUVmax and background SUVmean) in up to 5 concordant lesions between ^68Ga-PSMA-11 and ^64Cu-SAR-bisPSMA PET/CT as an exploratory endpoint.
Table 5 compares the number of positive, negative and indeterminate images as assessed by each reader. Reader 1 detected primary prostate cancer in 100% of patients to whom 200 MBq of ^64Cu-Sar-bisPSMA was administered, while Reader 2 detected 85.7% of patients. This is in contrast to 77.8% and 83.3%, respectively, when ^68Ga-PSMA-11 was administered.
The number of lesions detected by each reader with imaging by either ^64Cu-Sar-bisPSMA or ^68Ga-PSMA-11 was evaluated. For both readers, the total number of lesions, the mean and median number of lesions detected as a result of imaging by ^64Cu-Sar-bisPSMA was higher when compared with imaging by ^68Ga-PSMA-11, with the difference in these values being statistically significant.

[3] = next-day imaging, Day 1, same subject
[4] = Reader 1, 200 MBq cohort, scans/evaluable scans
[5] = Reader 2, 200 MBq cohort, 4 ^64Cu scans excluded as non-evaluable

T1 sequence (Q04609 whole entry): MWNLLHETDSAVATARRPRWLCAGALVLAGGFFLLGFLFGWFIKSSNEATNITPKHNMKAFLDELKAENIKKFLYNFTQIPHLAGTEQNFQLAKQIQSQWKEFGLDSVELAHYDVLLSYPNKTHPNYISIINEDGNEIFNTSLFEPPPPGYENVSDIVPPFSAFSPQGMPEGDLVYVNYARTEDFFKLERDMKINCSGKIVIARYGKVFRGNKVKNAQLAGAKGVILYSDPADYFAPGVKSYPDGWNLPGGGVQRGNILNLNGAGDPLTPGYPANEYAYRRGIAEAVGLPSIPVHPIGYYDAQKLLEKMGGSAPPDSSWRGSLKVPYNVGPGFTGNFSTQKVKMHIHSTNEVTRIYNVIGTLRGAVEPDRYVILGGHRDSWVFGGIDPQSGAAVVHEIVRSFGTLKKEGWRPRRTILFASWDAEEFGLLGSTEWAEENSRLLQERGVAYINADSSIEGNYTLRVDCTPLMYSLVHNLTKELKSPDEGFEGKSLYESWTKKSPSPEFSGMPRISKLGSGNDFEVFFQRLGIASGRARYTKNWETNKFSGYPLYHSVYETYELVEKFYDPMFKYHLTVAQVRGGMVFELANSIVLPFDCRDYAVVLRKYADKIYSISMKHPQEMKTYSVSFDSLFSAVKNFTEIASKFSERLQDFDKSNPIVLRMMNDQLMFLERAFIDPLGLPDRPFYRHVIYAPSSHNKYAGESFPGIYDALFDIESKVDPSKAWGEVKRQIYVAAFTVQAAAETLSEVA

Sar-bisPSMA [^64Cu-SAR-bisPSMA]
Increase of SUVmax, next-day compared to same-day imaging (FIG. 7) (PSMA receptor [1]; Day 1 vs Day 0): more than double | SUVmax Day 1 relative to previous day (FIG. 9) (PSMA receptor [1]; Day 1 vs same day): 4 times | Average SUVmax for the bone and pelvic lymph node lesions (FIG. 11B) (PSMA receptor [1]; following day imaging, same patient): 20.0 | Lesion visualisation on PET (words) (PSMA receptor [1]; next-day imaging (Day 1), FIGS. 8-12, listed as 64Cu Sar-bisPSMA): clearly identified a lesion | Lesion visualisation on PET (words) (PSMA receptor [1]; next-day imaging (Day 1), FIGS. 8-12, listed as 64Cu-Sar-bisPSMA): identified by three readers; also recorded: more positive lesions; also recorded: only visualised with imaging on the following day; also recorded: additional positive lesions | Lesion visualisation on PET (words) (PSMA receptor [1]; next-day imaging (Day 1), FIGS. 8-12, listed as compound of Formula (I) complexed with ^64Cu): successfully identifies a lesion | SUVmax of lesion (FIG. 9C) (PSMA receptor [1]; [3]): 17.5 | SUVmax of positive pelvic lymph node lesion (FIG. 7) (PSMA receptor [1]; [3]): 50.4 | Average SUVmax for the bone and pelvic lymph node lesions (FIG. 11A) (PSMA receptor [1]; same day imaging, one patient): 9.8 | Lesion visualisation on PET (words) (PSMA receptor [1]; same-day imaging (Day 0), FIGS. 8-9, listed as 64Cu Sar-bisPSMA): negative | Lesion visualisation on PET (words) (PSMA receptor [1]; same-day imaging (Day 0), FIGS. 8-9, listed as 64Cu-Sar-bisPSMA): less apparent; also recorded: not visualised | Lesion visualisation on PET (words) (PSMA receptor [1]; same-day imaging (Day 0), FIGS. 8-9, listed as compound of Formula (I) complexed with ^64Cu): does not clearly visualise a lesion | SUVmax of positive pelvic lymph node lesion (FIG. 7) (PSMA receptor [1]; same-day imaging, Day 0, one subject): 20.8 | SUVmax of lesion (FIG. 9B) (PSMA receptor [1]; same-day imaging, same subject): 4.3 | Mean Difference in number of lesions (^64Cu − ^68Ga) (PSMA receptor [2]; 200 MBq Cohort, Reader 1): 0.28 | Mean Number of Lesions per Participant (PSMA receptor [2]; 200 MBq Cohort, Reader 1): 2.3 | Median Difference in number of lesions (^64Cu − ^68Ga) (PSMA receptor [2]; 200 MBq Cohort, Reader 1): 0.0 | Median Number of Lesions per Participant (PSMA receptor [2]; 200 MBq Cohort, Reader 1): 2 | Total # of Lesions Detected (all participants) (PSMA receptor [2]; 200 MBq Cohort, Reader 1): 41 | Mean Difference in number of lesions (^64Cu − ^68Ga) (PSMA receptor [2]; 200 MBq Cohort, Reader 2): 0.64 | Mean Number of Lesions per Participant (PSMA receptor [2]; 200 MBq Cohort, Reader 2): 2.2 | Median Difference in number of lesions (^64Cu − ^68Ga) (PSMA receptor [2]; 200 MBq Cohort, Reader 2): 0.0 | Median Number of Lesions per Participant (PSMA receptor [2]; 200 MBq Cohort, Reader 2): 2 | Total # of Lesions Detected (all participants) (PSMA receptor [2]; 200 MBq Cohort, Reader 2): 31 | Mean Difference in number of lesions (^64Cu − ^68Ga) (PSMA receptor [2]; All Cohorts, Reader 1 (N = 29)): 0.41 | Mean Number of Lesions per Participant (PSMA receptor [2]; All Cohorts, Reader 1 (N = 29)): 2.2 | Median Difference in number of lesions (^64Cu − ^68Ga) (PSMA receptor [2]; All Cohorts, Reader 1 (N = 29)): 0.0 | Median Number of Lesions per Participant (PSMA receptor [2]; All Cohorts, Reader 1 (N = 29)): 2 | Total # of Lesions Detected (all participants) (PSMA receptor [2]; All Cohorts, Reader 1 (N = 29)): 63 | Mean Difference in number of lesions (^64Cu − ^68Ga) (PSMA receptor [2]; All Cohorts, Reader 2 (N = 17)): 0.52 | Mean Number of Lesions per Participant (PSMA receptor [2]; All Cohorts, Reader 2 (N = 17)): 2 | Median Difference in number of lesions (^64Cu − ^68Ga) (PSMA receptor [2]; All Cohorts, Reader 2 (N = 17)): 0.0 | Median Number of Lesions per Participant (PSMA receptor [2]; All Cohorts, Reader 2 (N = 17)): 4 | Total # of Lesions Detected (all participants) (PSMA receptor [2]; All Cohorts, Reader 2 (N = 17)): 34 | % TPR (True Positive Rate), detection of primary prostate cancer (PSMA receptor [2]; Reader 1): 100.0% | Positive images (primary prostate cancer) (PSMA receptor [2]; Reader 1, 200 MBq ^64Cu-Sar-bisPSMA cohort, scans/evaluable scans): 18/18 | % TPR (True Positive Rate), detection of primary prostate cancer (PSMA receptor [2]; Reader 1, listed as 64Cu-Sar-bisPSMA): 100% | Indeterminate images (PSMA receptor [2]; [4]): 0/18 | Negative images (PSMA receptor [2]; [4]): 0/18 | % FNR (False Negative Rate) (PSMA receptor [2]; Reader 1): 0.0% | % TPR (True Positive Rate), detection of primary prostate cancer (PSMA receptor [2]; Reader 2): 85.7% | Indeterminate images (PSMA receptor [2]; [5]): 2/14* | Negative images (PSMA receptor [2]; [5]): 0/14* | Positive images (primary prostate cancer) (PSMA receptor [2]; [5]): 12/14* | % FNR (False Negative Rate) (PSMA receptor [2]; Reader 2): 14.3% | Total, mean and median number of lesions detected compared with ^68Ga-PSMA-11 (PSMA receptor [2]; both readers): higher | Detection of secondary lesion in lymph node by PET/CT (FIG. 3) (PSMA receptor [2]): Detection of a secondary lesion | Detection of secondary lesion in lymph node by PET/CT (FIG. 3) (PSMA receptor [2]; listed as compound of Formula (I) complexed with ^64Cu): clearly identifies a lesion
